Test results from article PMC2376372, “3-Bromophenyl 6-acetoxymethyl-2-oxo-2H-1-benzopyran-3-carboxylate inhibits cancer cell invasion in vitro and tumour growth in vivo” (British Journal of Cancer, 2003).

Columns and labels:
[1] = tested on: HT1080 fibrosarcoma cells; assay: Chemotaxis assay, uncoated Transwell inserts; assay type: cell-based, human; settings: Homo sapiens, HT-1080, 4 h, uncoated filters
Procedure: HT1080 cells exponentially growing in T-75 flasks (Nunc, Costar, Netherlands) were collected by trypsin–ethylenediaminetetraacetic acid treatment, washed with serum-containing medium and allowed to recover from trypsinisation for at least 30 min at 37°C. Cells were then washed twice in serum-free DMEM and diluted in the same medium supplemented with 0.1% bovine serum albumin (BSA, fraction V, Sigma, USA) to a cell density of 6 × 10^5 cells ml^−1.
The influence of coumarin derivatives (0.1, 1 and 10 μM) on HT1080 cell invasion and migration was assayed using Transwell cell culture inserts (Costar) and compared to the reference compound GI 129471 (1 μM), an MMP inhibitor ([Wheeler et al, 1998]).
For chemoinvasion assays, type IV collagen-coated membranes (see above) were used, whereas uncoated membranes were employed for chemotaxis assays. Lower wells of chambers were filled with DMEM supplemented with 20% FCS and 1% BSA (fraction V, ICN) as chemoattractant, in the presence or absence of coumarin derivative (final concentration 0.1, 1 and 10 μM) or GI 129471 (final concentration 1 μM). Cells (6 × 10^4) suspended in DMEM supplemented with 0.1% BSA (fraction V, ICN) were seeded in the upper wells. Chambers were subsequently incubated for 48 and 4 h for chemoinvasion and chemotaxis assays, respectively, in a humid atmosphere at 37°C (in order to maintain a chemotactic gradient, media from both lower and upper wells were renewed after 24 h). After incubation, filters were removed from the chambers, fixed in 4% paraformaldehyde for 15 min (4°C), permeabilised for 10 min in methanol (−20°C) and stained with Giemsa (4%) for 15 min. The upper surface of the filters was scrapped with a cotton swab and cells having reached the lower surface of the filters were visually counted using a light microscope (Vanox AH3, Olympus, Hamburg, Germany) at 20-fold magnification. Each assay was performed in triplicate. Results were expressed as percentages (±s.d.) of the migration of control cells.

MMP-2 and MMP-9 = assay: Gelatin zymography of HT1080 conditioned medium; assay type: biochemical, human; settings: 1–100 μM in HT1080 conditioned medium
Procedure: The culture medium of human fibrosarcoma HT1080 cells (DMEM) was removed and concentrated 20-fold in a Vivaspin 6 ml concentrator. It was incubated for 30 min at ambient temperature in nonreducing sample buffer and run under Laemmli conditions ([Laemmli, 1970]) by loading a volume of 25 μl onto 7.5% polyacrylamide gels containing 0.1% sodium dodecyl sulphate (SDS), 2 mg ml^−1 casein and 0.16 μM human plasminogen. Following electrophoresis, gels were incubated for 1 h in 2.5% (v v^−1) Triton X-100 for removal of SDS and then for 1 h at 37°C in 50 mM Tris-HCl, 0.1 M NaCl, pH 7.6. Plasminogen activator (PA) activity was visualised as clear bands of lysis upon staining with 0.1% Coomassie blue R250. Purified human high-molecular-weight two-chain urokinase plasminogen activator (HMW-uPA) and low-molecular-weight urokinase plasminogen activator (LMW-uPA) were run in each gel as positive controls. An analogous protocol was followed to detect enzymatic activities towards MMP-2 and MMP-9 except that the 7% SDS–PAGE contained 1 mg ml^−1 bovine gelatin. The gels were incubated at 37°C for about 18 h in 5 mM Tris, pH 7.6 containing 0.2 M NaCl, 5 mM CaCl2 and 0.02 (w v^−1) Brij35. Protein staining was performed during 1 h with a 0.25% solution of Coomassie brillant blue R250 in 50% methanol and 7% acetic acid and destaining in a solution of 20% methanol and […]. […]

| Compound | inhibition at 1 µM [1] [%] | effect on gelatinolytic activities of conditioned culture medium (gelatin zymography) (MMP-2 and MMP-9) | inhibition at 0.1 µM ([1]; 0.1 μM) [%] | inhibition at 10 µM ([1]; 10 μM) [%] |
| --- | --- | --- | --- | --- |
| CC(=O)OCc1ccc2oc(=O)c(C(=O)Oc3cccc(Br)c3)cc2c1 [compound 7, 3-bromophenyl 6-acetoxy-methyl-2-oxo-2H-1-benzopyran-3-carboxylate] | ~30 | did not abrogate | – | – |
| CC(=O)OCc1ccc2oc(=O)c(C(=O)Oc3cccc(Cl)c3)cc2c1 [compound 4, 3-chlorophenyl 6-acetoxymethyl-2-oxo-2H-1-benzopyran-3-carboxylate] | 50 | did not abrogate | 20 | 80 |
